Measured values reported in publication PMC5933782, “Molecular structures of cdc2-like kinases in complex with a new inhibitor chemotype” (PLoS ONE, 2018).
Where two headings read alike, the source gives them in different places.

How the values were obtained:
DYRK1A [1] = test system: DYRK1A; set-up: method as in PMID 28555643; settings: 1 μM; cited from earlier work
CLK1 [2] = test system: CLK1; set-up: method as in PMID 28555643; settings: 1 μM; cited from earlier work
CLK1 [3] = test system: CLK1; set-up: method as in PMID 21450467; settings: cited from earlier work
DYRK1A [4] = test system: DYRK1A; set-up: method as in PMID 21450467; settings: cited from earlier work
HCT116 = settings: colorectal cancer cell line; cited from earlier work
CLK1 [5] = settings: cited from earlier work
DYRK1A [6] = settings: cited from earlier work
CLK1 [7] = test system: CLK1; set-up: method as in PMID 28561591; settings: cited from earlier work
DYRK1A [8] = test system: DYRK1A; set-up: method as in PMID 28561591; settings: cited from earlier work
CLK3 = CLK3 (Mus musculus, UniProt O35492); assay: radiometric protein kinase assay
CLK3, sequence (O35492 whole entry): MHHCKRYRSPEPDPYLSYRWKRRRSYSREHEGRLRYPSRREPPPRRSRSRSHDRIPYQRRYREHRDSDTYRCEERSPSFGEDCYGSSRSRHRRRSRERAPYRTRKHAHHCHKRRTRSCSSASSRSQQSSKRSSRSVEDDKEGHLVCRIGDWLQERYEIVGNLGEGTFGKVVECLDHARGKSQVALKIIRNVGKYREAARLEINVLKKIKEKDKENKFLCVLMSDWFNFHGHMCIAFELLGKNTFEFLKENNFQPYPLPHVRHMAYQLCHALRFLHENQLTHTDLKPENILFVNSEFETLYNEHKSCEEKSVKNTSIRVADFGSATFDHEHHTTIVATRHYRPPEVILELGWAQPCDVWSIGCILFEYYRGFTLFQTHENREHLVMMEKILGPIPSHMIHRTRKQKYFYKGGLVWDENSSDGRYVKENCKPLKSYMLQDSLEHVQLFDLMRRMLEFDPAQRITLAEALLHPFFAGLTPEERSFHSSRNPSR
Procedure: (§1) Buffers. Buffer A: 10 mM MgCl2, 1 mM EGTA, 1 mM DTT, 25 mM Tris-HCl pH 7.5, 50 μg heparin/mL. Buffer C: 60 mM β-glycerophosphate, 15 mM p-nitrophenylphosphate, 25 mM MOPS (pH 7.2), 15 mM EGTA, 15 mM MgCl2, 1 mM DTT, 1 mM sodium vanadate, 1 mM phenylphosphate.
(§2) Kinase activities were assayed in buffer A or C at 30°C at a final ATP concentration of 15 μmol/L. Blank values were subtracted and activities were expressed in percent of the maximal activity, i.e. in the absence of inhibitors. Controls were performed with appropriate dilutions of DMSO.
(§3) Their kinase activity was assayed in buffer A, with 1 mg histone H1/mL, in the presence of 15 μmol/L [γ-33P] ATP (3,000 Ci/mmol; 10 mCi/mL) in a final volume of 30 μL. After 30 min incubation at 30°C, the reaction was stopped by harvesting onto P81 phosphocellulose supernatant (Whatman) using a FilterMate harvester (Packard) and washing in 1% phosphoric acid. Scintillation fluid was added and the radioactivity measured in a Packard counter.
(§4) All data points for construction of dose response curves were recorded in triplicate.

CDK5/p25 = biological target: T1, CDK5/p25 (Homo sapiens, UniProt Q00535); assay: radiometric protein kinase assay; type: biochemical; settings: 15 μmol/L ATP
T1 construct: made in house
T1 sequence (Q00535 whole entry): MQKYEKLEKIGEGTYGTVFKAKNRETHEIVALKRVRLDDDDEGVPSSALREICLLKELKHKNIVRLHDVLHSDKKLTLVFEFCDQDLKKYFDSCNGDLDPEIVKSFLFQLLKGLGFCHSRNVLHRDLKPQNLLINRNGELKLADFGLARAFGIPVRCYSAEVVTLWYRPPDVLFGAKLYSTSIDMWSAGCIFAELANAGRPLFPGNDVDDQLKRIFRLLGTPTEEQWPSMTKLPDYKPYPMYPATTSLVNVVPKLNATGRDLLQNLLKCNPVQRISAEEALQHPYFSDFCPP
T1 sequence (Q15078 99-307 partner limits assumed): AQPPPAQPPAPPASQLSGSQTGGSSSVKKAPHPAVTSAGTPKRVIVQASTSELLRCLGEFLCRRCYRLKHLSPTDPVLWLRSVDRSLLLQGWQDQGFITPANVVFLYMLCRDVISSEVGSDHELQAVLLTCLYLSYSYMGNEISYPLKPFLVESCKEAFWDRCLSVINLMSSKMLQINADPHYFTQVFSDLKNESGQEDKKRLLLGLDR

DYRK3 = biological target: T2, DYRK3 (Homo sapiens, UniProt O43781); assay: radiometric protein kinase assay; type: biochemical; settings: 15 μmol/L ATP; read-out: IC50 DYRK 3
T2 sequence (O43781 1-588): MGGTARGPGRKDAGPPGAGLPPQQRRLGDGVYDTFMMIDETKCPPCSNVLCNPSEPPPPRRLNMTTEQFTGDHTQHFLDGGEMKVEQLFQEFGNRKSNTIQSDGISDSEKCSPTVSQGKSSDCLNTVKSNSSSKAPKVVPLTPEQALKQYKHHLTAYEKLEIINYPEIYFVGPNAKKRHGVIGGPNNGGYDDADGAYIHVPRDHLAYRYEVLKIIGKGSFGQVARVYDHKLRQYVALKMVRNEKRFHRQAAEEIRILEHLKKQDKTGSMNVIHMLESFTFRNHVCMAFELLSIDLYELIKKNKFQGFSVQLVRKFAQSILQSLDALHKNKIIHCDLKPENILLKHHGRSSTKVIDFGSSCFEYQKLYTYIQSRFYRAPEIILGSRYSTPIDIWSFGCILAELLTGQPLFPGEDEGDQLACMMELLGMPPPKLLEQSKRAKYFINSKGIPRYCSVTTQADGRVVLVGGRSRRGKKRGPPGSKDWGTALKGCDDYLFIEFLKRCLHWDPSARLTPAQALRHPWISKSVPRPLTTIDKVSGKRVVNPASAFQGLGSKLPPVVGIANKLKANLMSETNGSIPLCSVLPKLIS

CLK4 = CLK4 (Mus musculus, UniProt O35493); assay: radiometric protein kinase assay
CLK4, sequence (O35493 whole entry): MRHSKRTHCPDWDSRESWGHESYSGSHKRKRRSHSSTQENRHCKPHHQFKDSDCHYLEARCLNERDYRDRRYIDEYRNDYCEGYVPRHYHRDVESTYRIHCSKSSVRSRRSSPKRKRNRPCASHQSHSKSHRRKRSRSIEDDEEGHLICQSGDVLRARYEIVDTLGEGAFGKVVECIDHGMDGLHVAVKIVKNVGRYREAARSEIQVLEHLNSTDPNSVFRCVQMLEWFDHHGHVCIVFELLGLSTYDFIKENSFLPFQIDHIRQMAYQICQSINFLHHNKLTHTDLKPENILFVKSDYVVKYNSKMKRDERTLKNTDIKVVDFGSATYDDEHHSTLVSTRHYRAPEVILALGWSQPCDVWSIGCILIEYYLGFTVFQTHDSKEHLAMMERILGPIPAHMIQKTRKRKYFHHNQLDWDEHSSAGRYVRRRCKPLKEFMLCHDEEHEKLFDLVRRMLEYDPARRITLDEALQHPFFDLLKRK
Procedure: as §1, §2, §3, §4

CDK9/cyclin T = CDK9/cyclin T (Homo sapiens, UniProt P50750); assay: radiometric protein kinase assay
CDK9/cyclin T, sequence (P50750 whole entry): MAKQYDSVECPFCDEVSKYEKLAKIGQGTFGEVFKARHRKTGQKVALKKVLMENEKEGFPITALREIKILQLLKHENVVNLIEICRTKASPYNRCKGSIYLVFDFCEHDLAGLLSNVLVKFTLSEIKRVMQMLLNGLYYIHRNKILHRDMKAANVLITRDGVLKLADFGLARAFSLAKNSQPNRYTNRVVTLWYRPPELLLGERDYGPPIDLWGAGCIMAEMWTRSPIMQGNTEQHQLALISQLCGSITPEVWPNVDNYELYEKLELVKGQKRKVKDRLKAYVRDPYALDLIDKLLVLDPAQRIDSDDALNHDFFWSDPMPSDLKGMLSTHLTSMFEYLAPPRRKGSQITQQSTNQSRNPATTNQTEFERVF
CDK9/cyclin T, sequence (O60563 whole entry partner): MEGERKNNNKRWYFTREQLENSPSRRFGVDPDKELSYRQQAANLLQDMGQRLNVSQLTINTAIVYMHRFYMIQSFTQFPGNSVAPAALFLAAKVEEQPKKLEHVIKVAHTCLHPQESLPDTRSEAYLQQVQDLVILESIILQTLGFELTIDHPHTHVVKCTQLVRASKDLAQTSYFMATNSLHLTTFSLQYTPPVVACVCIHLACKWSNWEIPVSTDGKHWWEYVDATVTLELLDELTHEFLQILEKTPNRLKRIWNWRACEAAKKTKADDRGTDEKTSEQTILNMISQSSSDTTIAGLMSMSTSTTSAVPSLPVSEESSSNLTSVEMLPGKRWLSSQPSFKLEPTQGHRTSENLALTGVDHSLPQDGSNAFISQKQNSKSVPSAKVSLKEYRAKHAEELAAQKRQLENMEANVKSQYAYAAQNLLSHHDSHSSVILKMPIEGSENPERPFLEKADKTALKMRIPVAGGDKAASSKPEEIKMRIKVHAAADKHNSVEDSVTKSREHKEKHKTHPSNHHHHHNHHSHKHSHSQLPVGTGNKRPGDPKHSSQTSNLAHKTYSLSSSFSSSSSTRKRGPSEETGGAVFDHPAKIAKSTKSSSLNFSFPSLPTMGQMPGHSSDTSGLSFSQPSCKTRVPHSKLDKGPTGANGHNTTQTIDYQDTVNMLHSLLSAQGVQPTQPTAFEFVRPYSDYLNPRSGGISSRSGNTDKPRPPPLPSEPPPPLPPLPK
Procedure: as §1, §2, §3, §4

DYRK1A [9] = biological target: DYRK1A (Homo sapiens, UniProt Q13627); assay: radiometric protein kinase assay; type: biochemical; settings: 15 μmol/L ATP; read-out: IC50 DYRK 1A
DYRK1B = DYRK1B (Homo sapiens, UniProt Q9Y463); assay: radiometric protein kinase assay; type: biochemical; settings: 15 μmol/L ATP; read-out: IC50 DYRK 1B
DYRK1B, sequence (Q9Y463 whole entry): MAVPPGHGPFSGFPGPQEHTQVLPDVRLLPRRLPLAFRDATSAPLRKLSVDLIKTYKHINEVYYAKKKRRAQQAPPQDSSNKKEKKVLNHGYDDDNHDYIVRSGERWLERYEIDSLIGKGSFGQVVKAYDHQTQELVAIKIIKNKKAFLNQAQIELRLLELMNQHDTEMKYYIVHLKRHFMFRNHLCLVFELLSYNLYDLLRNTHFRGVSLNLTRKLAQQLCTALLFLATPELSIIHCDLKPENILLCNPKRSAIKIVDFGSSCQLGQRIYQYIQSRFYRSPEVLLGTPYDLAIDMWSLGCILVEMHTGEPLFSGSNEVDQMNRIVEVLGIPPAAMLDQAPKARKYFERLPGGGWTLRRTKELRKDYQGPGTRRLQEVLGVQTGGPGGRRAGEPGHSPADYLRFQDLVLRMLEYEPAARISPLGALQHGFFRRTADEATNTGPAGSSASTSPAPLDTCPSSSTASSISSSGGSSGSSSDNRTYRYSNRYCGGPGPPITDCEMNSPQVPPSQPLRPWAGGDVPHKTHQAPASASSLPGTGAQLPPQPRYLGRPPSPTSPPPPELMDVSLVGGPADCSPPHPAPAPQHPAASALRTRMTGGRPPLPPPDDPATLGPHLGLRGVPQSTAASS

GSK-3 = assay: radiometric protein kinase assay; type: biochemical, porcine; settings: 15 μmol/L ATP; read-out: IC50 GSK3
CLK1 [10] = biological target: CLK1 (Mus musculus, UniProt P22518); assay: radiometric protein kinase assay
CLK1 (Mus musculus, UniProt P22518), sequence (P22518 whole entry): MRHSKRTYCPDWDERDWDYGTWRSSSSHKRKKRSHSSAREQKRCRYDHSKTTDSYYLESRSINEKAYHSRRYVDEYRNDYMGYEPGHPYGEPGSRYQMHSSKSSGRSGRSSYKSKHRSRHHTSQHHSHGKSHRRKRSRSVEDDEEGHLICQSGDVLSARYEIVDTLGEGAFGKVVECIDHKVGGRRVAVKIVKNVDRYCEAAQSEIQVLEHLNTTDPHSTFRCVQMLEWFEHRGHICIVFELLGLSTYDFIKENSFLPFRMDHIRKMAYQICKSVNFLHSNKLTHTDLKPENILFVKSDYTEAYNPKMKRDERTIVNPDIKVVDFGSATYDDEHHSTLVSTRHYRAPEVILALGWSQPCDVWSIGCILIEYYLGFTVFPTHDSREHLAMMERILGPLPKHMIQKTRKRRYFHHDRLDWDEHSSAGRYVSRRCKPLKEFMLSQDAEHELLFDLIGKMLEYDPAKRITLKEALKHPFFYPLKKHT

CK1δ/ε = assay: radiometric protein kinase assay; type: biochemical, porcine; settings: 15 μmol/L ATP; read-out: IC50 CK1
CDK2/cyclin A = biological target: T3, CDK2/cyclin A (Homo sapiens, UniProt P24941); assay: radiometric protein kinase assay; type: biochemical; settings: 15 μmol/L ATP; read-out: IC50 CDK2/cyclinA
T3 construct: made in house

DYRK2 = biological target: T4, DYRK2 (Homo sapiens, UniProt Q92630); assay: radiometric protein kinase assay; type: biochemical; settings: 15 μmol/L ATP; read-out: IC50 DYRK 2
T4 sequence (Q92630 1-601): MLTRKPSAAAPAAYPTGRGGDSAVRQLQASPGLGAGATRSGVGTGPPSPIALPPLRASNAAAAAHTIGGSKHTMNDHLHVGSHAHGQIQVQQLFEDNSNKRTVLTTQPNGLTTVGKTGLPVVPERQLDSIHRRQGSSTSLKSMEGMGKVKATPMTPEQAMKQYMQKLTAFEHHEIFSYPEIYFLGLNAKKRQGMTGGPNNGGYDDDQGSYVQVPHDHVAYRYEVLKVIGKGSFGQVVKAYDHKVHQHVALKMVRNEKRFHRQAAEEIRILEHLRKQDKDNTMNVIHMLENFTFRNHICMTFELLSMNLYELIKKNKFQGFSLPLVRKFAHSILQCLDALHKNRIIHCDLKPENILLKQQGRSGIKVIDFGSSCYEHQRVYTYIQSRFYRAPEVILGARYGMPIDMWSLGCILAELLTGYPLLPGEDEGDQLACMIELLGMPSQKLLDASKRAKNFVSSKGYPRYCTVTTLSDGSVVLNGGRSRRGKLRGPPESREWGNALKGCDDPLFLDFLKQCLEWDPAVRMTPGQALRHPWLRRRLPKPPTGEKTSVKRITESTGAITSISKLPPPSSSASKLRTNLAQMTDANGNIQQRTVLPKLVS

CDK1/cyclin B = assay: radiometric protein kinase assay; type: biochemical, starfish; settings: 15 μmol/L ATP
CLK2 = CLK2 (Mus musculus, UniProt O35491); assay: radiometric protein kinase assay
CLK2, sequence (O35491 whole entry): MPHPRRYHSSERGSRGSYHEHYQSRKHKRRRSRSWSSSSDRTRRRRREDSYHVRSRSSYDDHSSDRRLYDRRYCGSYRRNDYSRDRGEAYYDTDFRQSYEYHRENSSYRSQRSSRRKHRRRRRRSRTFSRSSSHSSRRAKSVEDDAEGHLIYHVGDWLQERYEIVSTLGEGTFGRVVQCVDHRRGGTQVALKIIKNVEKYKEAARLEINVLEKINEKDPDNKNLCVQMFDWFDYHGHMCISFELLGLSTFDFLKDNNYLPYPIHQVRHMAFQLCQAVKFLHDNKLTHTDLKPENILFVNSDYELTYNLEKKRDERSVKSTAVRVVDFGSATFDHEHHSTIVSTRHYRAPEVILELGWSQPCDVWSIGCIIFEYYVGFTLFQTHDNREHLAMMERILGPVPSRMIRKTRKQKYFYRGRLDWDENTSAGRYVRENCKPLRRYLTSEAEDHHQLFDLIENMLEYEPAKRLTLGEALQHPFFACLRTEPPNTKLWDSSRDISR
Procedure: as §1, §2, §3, §4

For `c1cc(-c2ccc3[nH]ncc3c2)ccn1` [TG693], the “inhibition of DYRK1A activity” value (DYRK1A [1]) is listed as 84% and the “inhibition of CLK1 activity” value (CLK1 [2]) is listed as 93%.
In the case of `Cc1nc(CNc2ncnc3ccc(-c4ccc5c(c4)OCO5)cc23)cs1` [NCGC00185963], the IC50 (CLK1 [3]) is given as 96 nM and the IC50 (DYRK1A [4]) is given as 206 nM.
For `CN1CCN(C(=O)C(C)(C)c2ccc(C(=O)Nc3cn4cc(-c5ccncc5)ccc4n3)cc2)CC1` [T3], the GI50 (HCT116) is listed as 130 nM, the IC50 (CLK1 [5]) is listed as 0.67 nM and the IC50 (DYRK1A [6]) is listed as 260 nM.
For `COc1ccc2sc(C(=O)N(C)Cc3cccc(F)c3)cc2c1` [compound 4], the IC50 (CLK1 [7]) is given as 7 nM and the IC50 (DYRK1A [8]) is given as 340 nM.
Work on `O=C1NCc2c(-c3ccccc3F)cc3c(-c4ccccc4)c[nH]c3c21` [17b, 5-(2-Fluorophenyl)-3-phenyl-6,7-dihydropyrrolo[3,4-g]indol-8(1H)-one] yielded an IC50 (CLK3) of over 10000 nM, an IC50 (CDK5/p25) of over 10000 nM and an IC50 (DYRK3) of over 10000 nM. The IC50 (CLK4) was 910 nM, the IC50 (CDK9/cyclin T) was over 10000 nM and the IC50 (DYRK1A [9]) was over 10000 nM. It also gave an IC50 (DYRK1B) of over 10000 nM, a melting point of 136 to 139 °C and an IC50 (GSK-3) of over 10000 nM. For the same compound, the IC50 (CLK1 [10]) was 5800 nM, the IC50 (CK1δ/ε) was over 10000 nM and the IC50 (CDK2/cyclin A) was over 10000 nM. It also gave an IC50 (DYRK2) of over 10000 nM, an IC50 (CDK1/cyclin B) of over 10000 nM and an IC50 (CLK2) of 4100 nM.
